Common to all, as to type: cell-based
One test deals with T1, human GIP receptor (Homo sapiens, UniProt P48546).
T1 construct: host or cells: COS-7
T1 sequence (P48546 22-466): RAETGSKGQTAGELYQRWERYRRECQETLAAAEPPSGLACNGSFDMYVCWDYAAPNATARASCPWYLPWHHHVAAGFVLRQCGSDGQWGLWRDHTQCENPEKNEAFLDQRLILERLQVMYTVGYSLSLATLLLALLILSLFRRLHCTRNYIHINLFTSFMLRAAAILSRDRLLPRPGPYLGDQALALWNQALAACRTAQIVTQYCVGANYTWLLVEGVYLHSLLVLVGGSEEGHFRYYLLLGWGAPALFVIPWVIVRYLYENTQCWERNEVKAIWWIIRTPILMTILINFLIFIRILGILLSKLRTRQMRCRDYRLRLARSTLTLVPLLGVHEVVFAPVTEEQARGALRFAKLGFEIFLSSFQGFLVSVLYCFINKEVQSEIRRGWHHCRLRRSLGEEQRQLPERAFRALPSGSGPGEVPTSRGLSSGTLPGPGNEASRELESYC
The test is described as follows: cAMP accumulation, agonism (intrinsic activity) in transfected COS‐7 cells. Conditions: increasing concentrations of ligand alone, 30 min, COS‐7, n = 5. How it is done: (§1) COS‐7 cells were cultured at 10% CO2 and 37°C in Dulbecco's Modified Eagle Medium 1885 supplemented with 10% foetal bovine serum, 2‐mM glutamine, 180‐units ml^−1 penicillin and […] streptomycin. Transient transfection of the cells with either human or mouse GIP receptor was performed using the calcium phosphate precipitation method as previously described (van der Velden et al., [2021]). A second set of cells was transiently transfected with either mouse GLP‐1 or GLP‐2 receptor. Following the day after transfection, the cells were seeded in white 96‐well plates with a density of 35.000 cells per well. The next day the assay was initiated by washing the cells with HEPES buffered saline (HBS) followed by an incubation step with HBS and 1‐mM 3‐isobutyl‐1‐methylxanthine for 30 min at 37°C. For agonist studies, the ligands were then added and incubated for an additional 30 min at 37°C. To test for antagonistic properties, the cells were first preincubated for 10 min with the antagonist with subsequent addition of the agonist and incubated for an additional 20 min. The HitHunter® cAMP assay (Eurofins DiscoverX, Fremont, USA) was carried out according to the manufacturer's protocol. Luminescence was measured by PerkinElmer™ Envision 2014 Multilabel Reader.
(§2) To facilitate comparisons of assay outputs (cAMP assays), the results (of duplicate measurements) were normalized, with the response to 10 pM of GIP(1‐42) set as 100%. All ligand concentrations are reported as log‐transformed. The IC50 log values can be found in Figure 1. In Figure 3c, we have subtracted glucose levels from baseline to show the net differences in glucose levels in our different treatment groups.
(§3) FIGURE 1 In vitro signalling profile of mGIPAnt‐1 on the mouse and human glucose‐dependent insulinotropic polypeptide receptor/(GIPR). COS‐7 cells were transiently transfected with (a) mouse GIPR or (b) human GIPR and assayed for cAMP accumulation. To test for agonism, increasing concentration of the ligand was added. […]

A further test deals with T2, mouse GIP receptor (Mus musculus, UniProt Q0P543).
T2 construct: host or cells: COS-7
T2 sequence (Q0P543 19-460): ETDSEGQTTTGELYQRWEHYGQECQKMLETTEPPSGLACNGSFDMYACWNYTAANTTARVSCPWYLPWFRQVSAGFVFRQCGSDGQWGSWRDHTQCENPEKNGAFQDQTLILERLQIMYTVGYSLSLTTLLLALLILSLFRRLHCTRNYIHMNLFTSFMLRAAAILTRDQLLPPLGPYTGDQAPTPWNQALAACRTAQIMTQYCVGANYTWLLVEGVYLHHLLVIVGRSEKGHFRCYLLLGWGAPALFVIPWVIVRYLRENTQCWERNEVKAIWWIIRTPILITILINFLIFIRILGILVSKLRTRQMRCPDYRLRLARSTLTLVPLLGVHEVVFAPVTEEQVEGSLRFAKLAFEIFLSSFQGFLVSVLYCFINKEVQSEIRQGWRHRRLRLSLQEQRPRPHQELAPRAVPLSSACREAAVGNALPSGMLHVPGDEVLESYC
The description is as above. Particulars: increasing concentrations of ligand alone, 30 min, COS‐7, n = 5. How it is done: as §1, §2, §3

The target in another test is T3, mouse GLP‐2 receptor (Mus musculus, UniProt Q5IXF8).
T3 construct: host or cells: COS-7
T3 sequence (Q5IXF8 1-512): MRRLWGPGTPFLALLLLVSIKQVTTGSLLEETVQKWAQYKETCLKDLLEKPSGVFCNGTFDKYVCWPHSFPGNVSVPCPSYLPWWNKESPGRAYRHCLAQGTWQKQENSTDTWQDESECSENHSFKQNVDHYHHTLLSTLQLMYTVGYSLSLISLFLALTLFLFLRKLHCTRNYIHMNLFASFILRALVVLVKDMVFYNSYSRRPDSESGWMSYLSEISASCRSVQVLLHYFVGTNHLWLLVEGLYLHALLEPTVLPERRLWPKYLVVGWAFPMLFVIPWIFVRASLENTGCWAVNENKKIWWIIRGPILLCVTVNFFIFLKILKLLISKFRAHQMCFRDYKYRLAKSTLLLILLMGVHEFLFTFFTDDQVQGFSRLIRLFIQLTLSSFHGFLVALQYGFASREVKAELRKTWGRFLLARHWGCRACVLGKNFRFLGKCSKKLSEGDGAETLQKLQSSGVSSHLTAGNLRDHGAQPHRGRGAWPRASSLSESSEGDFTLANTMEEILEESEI
Briefly: cAMP accumulation, agonism in transfected COS‐7 cells. Particulars: increasing concentrations, COS‐7, n = 5. How it is done: as §1
FIGURE 2 In vitro signalling profile of mGIPAnt‐1 on the mouse GLP‐1 and GLP‐2 receptor (R). […]

One compound from article PMC9544171, “Glucose‐dependent insulinotropic polypeptide receptor antagonist treatment causes a reduction in weight gain in ovariectomised high fat diet‐fed mice” (British Journal of Pharmacology, 2022) can be followed below.

Where a SMILES comes first, the peptide text is derived from it. The star is where a group is joined. C16 diacid = O=C(O)CCCCCCCCCCCCCCC(=O)*

With `CC[C@H](C)[C@H](NC(=O)[C@H](CO)NC(=O)[C@H](Cc1ccc(O)cc1)NC(=O)[C@H](CC(=O)O)NC(=O)[C@H](CO)NC(=O)[C@@H](NC(=O)[C@H](Cc1ccccc1)NC(=O)[C@@H](NC(=O)CNC(=O)[C@@H](N)CCC(=O)O)[C@@H](C)O)[C@@H](C)CC)C(=O)N[C@@H](C)C(=O)N[C@@H](CCSC)C(=O)N[C@@H](CC(=O)O)C(=O)N[C@@H](CCCCN)C(=O)N[C@H](C(=O)N[C@@H](CCCCNC(=O)CCCCCCCCCCCCCCC(=O)O)C(=O)N[C@@H](CCC(N)=O)C(=O)N[C@@H](CCC(N)=O)C(=O)N[C@@H](CC(=O)O)C(=O)N[C@@H](Cc1ccccc1)C(=O)N[C@H](C(=O)N[C@@H](CC(N)=O)C(=O)N[C@@H](Cc1c[nH]c2ccccc12)C(=O)N[C@@H](CC(C)C)C(=O)N[C@@H](CC(C)C)C(=O)N[C@@H](C)C(=O)N[C@@H](CCC(N)=O)C(=O)N[C@@H](CCCCN)C(=O)NCC(=O)N[C@@H](CCCCN)C(=O)N[C@@H](CCCCN)C(=O)N[C@@H](CC(N)=O)C(=O)N[C@@H](CC(=O)O)C(=O)N[C@@H](Cc1c[nH]c2ccccc12)C(=O)N[C@@H](CCCCN)C(=O)N[C@@H](Cc1c[nH]cn1)C(=O)N[C@@H](CC(N)=O)C(=O)O)C(C)C)[C@@H](C)CC` [mGIPAnt‐1] (H-EGTFISDYSIAMDKIK(C16 diacid)QQDFVNWLLAQKGKKNDWKHN-OH), the “intrinsic activity (activation of human GIP receptor, cAMP)” value at human GIP receptor is listed as “no activation”. Further, the “intrinsic activity (activation of mouse GIP receptor, cAMP)” value at mouse GIP receptor is listed as “no activation”. Besides, the “activation of mouse GLP‐2 receptor (cAMP)” value at mouse GLP‐2 receptor is “does not induce activation”.
